Measurements published in patent US20240277732A1, “COMPOSITIONS AND METHODS FOR TREATING BRAIN-GUT DISORDERS” (Enterin, Inc., priority 2018, published 2024).
“Also recorded” adds a separate entry of the source.

Key:
Assay type in all cases: in vivo, human
[1] = Phase 2 trial Stage 2: systolic blood pressure
[2] = tested on: patients with PD and constipation; assay: Phase 2 trial Stage 2: circadian rhythm of wrist skin temperature
Description: (§1) Assessments were made at baseline and at the end of the fixed dose and washout periods. Circadian system status was evaluated by continuously monitoring wrist skin temperature (Thermochron iButton DS1921H; Maxim, Dallas) following published procedures (Sarabia et al. 2008).
Circadian rhythm of skin temperature was evaluable in 12 patients (i.e., those who had recordings that extended from baseline through washout). Circadian system functionality was evaluated by continuously monitoring wrist skin temperature using a temperature sensor (Thermochron iButton DS1921H; Maxim, Dallas, TX) (Sarabia et al. 2008). A nonparametric analysis was performed for each participant to characterize DST as previously described (Sarabia et al. 2008; Ortiz-Tudela et al. 2010). […]
Briefly, this analysis includes the following parameters: (i) the inter-daily stability (the constancy of 24-hour rhythmic pattern over days, IS); (ii) intra-daily variability (rhythm fragmentation, IV); (iii) average of 10-minute intervals for the 10 hours with the minimum temperature (L10); (iv) average of 10-minute intervals for the 5 hours with the maximum temperature (M5) and the relative amplitude (RA), which was determined by the difference between M5 and L10, divided by the sum of both. Finally, the Circadian Function Index (CFI) was calculated by integrating IS, IV, and RA. […]

[3] = Phase 2 trial: pharmacokinetics of orally administered squalamine (ENT-01); settings: estimated against IV squalamine PK of prior clinical studies
Description: Pharmakokinetics: PK data were collected on the 10 patients enrolled in Stage 1 and 10 patients enrolled in Stage 2 to determine the extent of systemic absorption. In Stage 1, PK data were obtained at each visit, pre-medication, at 1, 2, 4, 8 and 24 hours (Table 10). In Stage 2, PK was measured on days 1 and 6 of the randomization period pre-medication, at 1, 2, 4 and 8 hours (Table 11).
The mean Cmax, Tmax and T1/2 and AUC of the squalamine ion following squalamine (ENT-01) oral dosing for Stage 1 patients. The PK analyses are only approximate, as the lower limit of the validated concentration range was 10 ng/ml; most of the measured concentrations fell below that value. The mean Cmax, Tmax and T1/2 and AUC of the squalamine ion following squalamine (ENT-01) oral dosing for Stage 2 patients. The PK analyses are only approximate, as the lower limit of the validated concentration range was 0.5 ng/ml.

[4] = tested on: patients with PD and constipation; assay: Phase 2 trial Stage 2: CNS symptoms (UPDRS, MMSE, PDHQ, BDI-II, sleep diary)
From the text: Exploratory end-points, in addition to constipation, included for example, (i) depression assessed using the Beck Depression Inventory (BDI-II) (Steer et al. 2000) and Unified Parkinson's Disease Rating Scale (UPDRS); (ii) cognition assessed using the Mini Mental State Examination (MMSE) (Palsteia et al. 2018), Unified Parkinson's Disease Rating Scale (UPDRS), and Trail Making Test (TMT); (iii) sleep and REM-behavior disorder (RBD) using a daily sleep diary, I-Button Temperature Assessment, a REM sleep behavior disorder (RBD) questionnaire (RBDQ) (Stiasny-Kolster et al. 2007), and the UPDRS; (iv) hallucinations assessed using the PD hallucinations questionnaire (PDHQ) (Papapetropoulos et al. 2008), the UPDRS, and direct questioning; (v) fatigue using the Parkinson's Disease Fatigue Scale (PFS-16) and the UPDRS; (vi) motor functions using the UPDRS; and (vii) non-motor functions using the UPDRS.
as §1
CNS Symptoms in Stage 2: An exploratory analysis was done with respect to the sleep data, the body temperature data, mood, fatigue, hallucinations, cognition and other motor and non-motor symptoms of PD. Continuous measurements within a subject were compared with a paired t-test and continuous measurements between subject groups were compared with a two-group t-test. Categorical data were compared with a chi-squared test or a Fisher's exact test if the expected cell counts are too small for a chi-squared test.

[5] = tested on: patients with PD and constipation; assay: Phase 2 trial: adverse events (MedDRA, CTCAE grading)
Description: Tolerability limits included diarrhea or vomiting.
(§2) In Stage 2, 34 patients were evaluated.

[6] = tested on: patients with PD and constipation; assay: Phase 2 trial Stage 2: bowel function under daily oral dosing (stool diary, PAC-QOL, PAC-SYM)
Description: Following successful screening, all subjects underwent a 14-day run-in period where the degree of constipation was assessed through a validated daily log (Zinsmeister et al. 2013) establishing baseline CSBMs/week. Subjects with an average of <3 CSBMs/week proceeded to dosing.
as §2
The primary efficacy outcome variable was whether or not a subject was a “success” or “failure”. This is an endpoint based on subject diary entries for the “fixed dose” period prior to the endpoint assessment defined as average complete stool frequency increase by 1 or more over baseline, or 3 or more complete spontaneous stools/week. The subject was deemed a “success” if s/he met one or more of the criteria listed above, otherwise the subject was deemed a “failure”. The primary analysis was based on all subjects with a baseline assessment and an assessment at the end of the “fixed-dose” period and was a comparison of the proportion of successes with 0.10 (the null hypothesis corresponding to no treatment effect).

CC(C)[C@@H](CC[C@@H](C)[C@H]1CC[C@H]2[C@@H]3[C@H](O)C[C@H]4C[C@@H](NCCCNCCCCN)CC[C@]4(C)[C@H]3CC[C@]12C)OS(=O)(=O)O (single isomer, unassigned) [squalamine (ENT-01)]
change of blood pressure at post medication measurement ([1]; Stage 2 subjects with high or low blood pressure): subjects with high blood pressure demonstrated lower blood pressure at post medication measurement, while subjects with low blood pressure demonstrated higher blood pressure
BP at V4 + 2 hrs post dose ([1]; individual subjects): 111 mmHg
markers of healthy circadian function (IS, RA, CFI, IV) ([2]; fixed dose versus baseline, 12 evaluable patients): improved all markers of healthy circadian function; also recorded: significant positive impact on the circadian rhythm of skin temperature
circadian parameters during wash-out (IS, CFI) ([2]; wash-out versus baseline): improvement persisted for several of these circadian parameters
oral bio-availability [3]: less than 0.3%
time hallucinations did not return after discontinuation ([4]; 1 patient): 4 weeks
time hallucinations did not return after discontinuation ([4]; another patient): 2 weeks
patients in whom hallucinations and delusions improved or disappeared during treatment ([4]; of those with hallucinations (5) or delusions (1) at baseline): 5 of 6
Nausea, Mild ([5]; Stage 1 (10 dosed)): 4(40) n, %
Diarrhea, adverse events by dose ([5]; Stage 1, 25 mg): 1
Nausea, adverse events by dose ([5]; Stage 1, 25 mg): 0
Vomiting, adverse events by dose ([5]; Stage 1, 25 mg): 0
Diarrhea, adverse events by dose ([5]; Stage 1, 50 mg): 1
Nausea, adverse events by dose ([5]; Stage 1, 50 mg): 0
Vomiting, adverse events by dose ([5]; Stage 1, 50 mg): 0
Diarrhea, adverse events by dose ([5]; Stage 1, 75 mg): 1
Nausea, adverse events by dose ([5]; Stage 1, 75 mg): 0
Vomiting, adverse events by dose ([5]; Stage 1, 75 mg): 0
Diarrhea, adverse events by dose ([5]; Stage 1, 100 mg): 0
Nausea, adverse events by dose ([5]; Stage 1, 100 mg): 1
Vomiting, adverse events by dose ([5]; Stage 1, 100 mg): 1
Diarrhea, adverse events by dose ([5]; Stage 1, 125 mg): 1
Nausea, adverse events by dose ([5]; Stage 1, 125 mg): 2
Vomiting, adverse events by dose ([5]; Stage 1, 125 mg): 1
Diarrhea, adverse events by dose ([5]; Stage 1, 150 mg): 1
Nausea, adverse events by dose ([5]; Stage 1, 150 mg): 0
Vomiting, adverse events by dose ([5]; Stage 1, 150 mg): 0
Diarrhea, adverse events by dose ([5]; Stage 1, 175 mg): 1
Nausea, adverse events by dose ([5]; Stage 1, 175 mg): 1
Vomiting, adverse events by dose ([5]; Stage 1, 175 mg): 0
Diarrhea, adverse events by dose ([5]; Stage 1, 200 mg): 0
Nausea, adverse events by dose ([5]; Stage 1, 200 mg): 2
Vomiting, adverse events by dose ([5]; Stage 1, 200 mg): 0
Difficulty falling asleep, Mild ([5]; Stage 2 (34 dosed)): 1(3) n, %
Eye infection, Mild ([5]; Stage 2 (34 dosed)): 1(3) n, %
Flatulence, Mild ([5]; Stage 2 (34 dosed)): 1(3) n, %
Urinary retention, Mild ([5]; Stage 2 (34 dosed)): 1(3) n, %
Urinary tract infection, Mild ([5]; Stage 2 (34 dosed)): 1(3) n, %
Worsening hemorrhoid, Mild ([5]; Stage 2 (34 dosed)): 1(3) n, %
Diarrhea, adverse events by dose ([5]; Stage 2, 75 mg): 7
Dizziness (lightheadedness included), adverse events by dose ([5]; Stage 2, 75 mg): 8
Nausea, adverse events by dose ([5]; Stage 2, 75 mg): 3
Diarrhea, adverse events by dose ([5]; Stage 2, 100 mg): 10
Dizziness (lightheadedness included), adverse events by dose ([5]; Stage 2, 100 mg): 7
Nausea, adverse events by dose ([5]; Stage 2, 100 mg): 12
Diarrhea, adverse events by dose ([5]; Stage 2, 125 mg): 3
Dizziness (lightheadedness included), adverse events by dose ([5]; Stage 2, 125 mg): 8
Nausea, adverse events by dose ([5]; Stage 2, 125 mg): 4
Diarrhea, adverse events by dose ([5]; Stage 2, 150 mg): 2
Dizziness (lightheadedness included), adverse events by dose ([5]; Stage 2, 150 mg): 2
Nausea, adverse events by dose ([5]; Stage 2, 150 mg): 11
Diarrhea, adverse events by dose ([5]; Stage 2, 175 mg): 1
Dizziness (lightheadedness included), adverse events by dose ([5]; Stage 2, 175 mg): 0
Nausea, adverse events by dose ([5]; Stage 2, 175 mg): 12
Diarrhea, adverse events by dose ([5]; Stage 2, 200 mg): 3
Nausea, adverse events by dose ([5]; Stage 2, 200 mg): 6
Diarrhea, adverse events by dose ([5]; Stage 2, 225 mg): 3
Nausea, adverse events by dose ([5]; Stage 2, 225 mg): 1
Diarrhea, adverse events by dose ([5]; Stage 2, 250 mg): 2
response rate (CSBM within 24 h of dosing on at least 2 of 3 days) ([6]; Stage 2, daily oral dosing, 75 mg): 26%
CSBM, weekly average (mean, SD) ([6]; Stage 2, fixed dose, n=34, baseline 1.2 (0.90)): 3.8 (2.4) /week
CSBM frequency ([6]; patients later randomized to placebo (n=9), fixed dose period on drug, baseline 1.6): 3.3 CSBM/week
CSBM frequency ([6]; randomized cohort, treatment arm (n=6), fixed dose period, baseline 0.8): 3.2 CSBM/week
CSBM frequency ([6]; randomized cohort, treatment arm (n=6), randomized period 4-6 days, baseline 0.8): 2.4 CSBM/week
CSBM frequency ([6]; randomized cohort, treatment arm (n=6), washout, baseline 0.8): 0.9 CSBM/week
